Starred links: 1 amine or outer side, 2 acyl side, 3 side chain; linkers in the order of their positions; H or OH if unused. Non-standard residues stand in square brackets, D forms with d. Residues, ends and D or L forms follow the SMILES beside them. *: point of attachment. Dolaproine = CO[C@@H]([C@@H]1CCCN1)[C@@H](C)C(=O)O; Dil = CC[C@H](C)[C@H](NC)[C@@H](CC(=O)O)OC; PABC = O=C(OCc1ccc(N[*:1])cc1)[*:2]; X1 = O=C(CCCC(=O)*)ON1C(=O)CCC1=O; X2 = C[C@@H](N*)[C@@H](O)c1ccccc1; Cit = NC(=O)NCCC[C@H](N)C(=O)O; NMeV = CN[C@H](C(=O)O)C(C)C
What was measured:
PC-3 xenograft = assay: In vivo efficacy in PC-3 xenograft, male Balb/c nude mice (Example 3); design: species or system Mus Musculus
Method: The objective of the research is to evaluate the in vivo anti-tumor efficacy of test articles in treatment of PC-3 xenograft in Balb/c nude mice.
The tumor cells were maintained in F-12K medium supplemented with 10% heat inactivated fetal bovine serum at 37° C. in an atmosphere of 5% CO2 in air. The tumor cells were routinely subcultured twice weekly. The cells growing in an exponential growth phase were harvested and counted for tumor inoculation.
Each mouse was inoculated subcutaneously at the right flank with PC-3 tumor cells (10×10^6) in 0.2 ml of PBS for tumor development. 52 animals were randomized when the average tumor volume reached 454 mm^3. The test article administration and the animal numbers in each group were shown in the experimental design table.
The major endpoint was to see if the tumor growth could be delayed or mice could be cured. Tumor volume was measured three times weekly in two dimensions using a caliper, and the volume was expressed in mm3 using the formula: V=0.5 a×b^2 where a and b are the long and short diameters of the tumor, respectively. The tumor size was then used for calculations of T/C value. The T/C value (in percent) is an indication of antitumor effectiveness; T and C are the mean volumes of the treated and control groups, respectively, on a given day.
TGI was calculated for each group using the formula: TGI (%)=[1−(Ti−T0)/(Vi−V0)]×100; Ti is the average tumor volume of a treatment group on a given day, T0 is the average tumor volume of the treatment group on the day of treatment start, Vi is the average tumor volume of the vehicle control group on the same day with Ti, and V0 is the average tumor volume of the vehicle group on the day of treatment start.
Tumor growth inhibition rate for test articles in the PC-3 xenograft model was calculated based on tumor volume measurements at day 20 after the start of the treatment.

CTG-0160 = assay: Champions TumorGraft NSCLC PDX efficacy, model CTG-0160; assay type: in vivo, Mus musculus
Method: Mice were implanted subcutaneously into the left flank with tumor fragments from one of the various models. After tumors grew to an average of 150-300 mm^3, mice were treated by IV administration Q7Dx4 (n=2) with vehicle or 3 mg/kg of BT5528. Effects on tumor growth were evaluated by measuring percent tumor growth inhibition (% TGI), and the number of complete responders (CR), partial responders (PR), and tumor-free survivors (TFS). Tolerability was assessed by body weight loss, lethality, and clinical signs of adverse treatment-related side effects. Tumor volumes and body weights were measured twice a week.
Dosing solutions of BT5528 […] were pre-formulated. These dosing solutions were stored at −80° C. in the dark. On each day of dosing, a frozen aliquot of each test agent was thawed, stored at 2-8° C. and used for dosing.
The animals used in this study are described below: • Species: Mus musculus • Strain: Athymic Nude-Foxn1^nu (immune-compromised) • Source: Envigo (Indianapolis, Ind., USA) • Number of animals per group: 2 • Age and sex: At least 6-8 weeks of age at start of dosing, female • Weight: At least 18 grams at start of dosing • Acclimation period: 3 days
Stock mice were implanted with tumor cells from Champions TumorGraft® models CTG-0160, CTG-0170, CTG-0178, CTG-0192, CTG-0363, CTG-0808, CTG-0838, CTG-0848, CTG-1212, CTG-1502, CTG-1535, CTG-2011, CTG-2393, CTG-2539 or CTG-2540. After the tumors reached 1000-1500 mm^3, they were harvested and the tumor fragments (approximately 5×5×5 mm^3) were implanted SC in the left flank of the female study mice. Each animal was implanted with a specific passage lot and documented. Tumor growth was monitored twice a week using digital calipers and the tumor volume (TV) was calculated using the formula (0.52×[length×width^2]). When the TV reached an average volume of 150-300 mm^3, animals were matched by tumor size and assigned into Vehicle Control and treatment groups (n=2/group) and dosing was initiated on Day 0. After the initiation of dosing on Day 0, animals were weighed twice per week using a digital scale and TV was measured twice per week and also on the final day of study. The study was completed when the mean tumor volume of Vehicle Control reached 1500 mm^3 or up to Day 60, whichever occurred first.
Beginning on Day 0, animals were observed daily and weighed twice weekly using a digital scale; data including individual and mean gram weights, mean percent weight change versus Day 0 (% vD0) were recorded for each group and % vD0 plotted at study completion. […] Treatment resulting in a mean % vD0>20% and/or >10% mortality was considered above the maximum tolerated dose. Maximum mean % vD0 (weight nadir) for each treatment group was reported at study completion.
Inhibition of tumor growth was determined by calculating the percent TGI (100%×[1−(final MTV−initial MTV of a treated group)/(final MTV−initial MTV of the control group)]). Treatment started on Day 0.
Additional endpoints used to evaluate efficacy were: the number of complete responders (CR), partial responders (PR), and tumor-free survivors (TFS). PRs were considered exclusive of CRs, as were TFS.
Statistical analyses of anti-tumor efficacy were performed using one-way ANOVA followed by Dunnett's multiple comparisons test (GraphPad Prism version 8.2.0). Significant p-values=<0.05.
Animals were dosed according to the schedule on Table 7-1. The Vehicle Control group reached endpoint of average tumor volume >1500 mm^3 on Day 21 and was removed from the study. The study was terminated on Day 28. Therefore, the tumor volumes on Day 21 were used for analysis of anti-tumor activity.

[1] = CTG-0160, 3 mg/kg IV Q7Dx4, Day 0-28

CC[C@H](C)[C@@H]([C@@H](CC(=O)N1CCC[C@H]1[C@H](OC)[C@@H](C)C(=O)N[C@H](C)[C@@H](O)c1ccccc1)OC)N(C)C(=O)[C@@H](NC(=O)[C@H](C(C)C)N(C)C(=O)OCc1ccc(NC(=O)[C@H](CCCNC(N)=O)NC(=O)[C@@H](NC(=O)CCCC(=O)ON2C(=O)CCC2=O)C(C)C)cc1)C(C)C [BT5528] (X1-V[Cit][PABC][NMeV]V[Dil][Dolaproine]-X2)
tumor relapse after ceasing the treatment (PC-3 xenograft; 0.5 mg/kg qw or 0.5 mg/kg q2w): obvious tumor relapse after ceasing the treatment
tumor relapse after ceasing the treatment (PC-3 xenograft; 1.5 mg/kg q2w): tumor relapse after ceasing the treatment
tumor relapse after ceasing the treatment (PC-3 xenograft; 1.5 mg/kg qw): didn't show any tumor relapse until day 48
further treatment after relapse (PC-3 xenograft; 1.5 mg/kg qw from day 52 in mice first treated with 0.5 mg/kg qw or q2w): worked well on the tumor regression
further dosing after relapse (PC-3 xenograft; 1.5 mg/kg qw from day 52 in mice first treated with 1.5 mg/kg q2w): didn't work on complete tumor regression
T/C (PC-3 xenograft; 0.167 mpk i.v. qw, day 20): 50.2%
TGI (PC-3 xenograft; 0.167 mpk i.v. qw, day 20): 61.4%
Tumor volume (PC-3 xenograft; 0.167 mpk i.v. qw, day 20): 1188 mm^3
T/C (PC-3 xenograft; 0.5 mpk i.v. q2w, day 20): 22.4%
TGI (PC-3 xenograft; 0.5 mpk i.v. q2w, day 20): 96.0%
Tumor volume (PC-3 xenograft; 0.5 mpk i.v. q2w, day 20): 530 mm^3
Tumor volume (PC-3 xenograft; 0.5 mpk i.v. qw, day 0): 451 mm^3
Tumor volume (PC-3 xenograft; 0.5 mpk i.v. qw, day 2): 622 mm^3
Tumor volume (PC-3 xenograft; 0.5 mpk i.v. qw, day 4): 519 mm^3
Tumor volume (PC-3 xenograft; 0.5 mpk i.v. qw, day 6): 460 mm^3
Tumor volume (PC-3 xenograft; 0.5 mpk i.v. qw, day 8): 398 mm^3
Tumor volume (PC-3 xenograft; 0.5 mpk i.v. qw, day 10): 329 mm^3
Tumor volume (PC-3 xenograft; 0.5 mpk i.v. qw, day 13): 260 mm^3
Tumor volume (PC-3 xenograft; 0.5 mpk i.v. qw, day 15): 249 mm^3
Tumor volume (PC-3 xenograft; 0.5 mpk i.v. qw, day 17): 231 mm^3
T/C (PC-3 xenograft; 0.5 mpk i.v. qw, day 20): 9.9%
TGI (PC-3 xenograft; 0.5 mpk i.v. qw, day 20): 111.4%
Tumor volume (PC-3 xenograft; 0.5 mpk i.v. qw, day 20): 234 mm^3
T/C (PC-3 xenograft; 1.5 mpk i.v. q2w, day 20): 5.4%
TGI (PC-3 xenograft; 1.5 mpk i.v. q2w, day 20): 117.0%
Tumor volume (PC-3 xenograft; 1.5 mpk i.v. q2w, day 20): 128 mm^3
Tumor volume (PC-3 xenograft; 1.5 mpk i.v. qw, day 0): 458 mm^3
Tumor volume (PC-3 xenograft; 1.5 mpk i.v. qw, day 2): 587 mm^3
Tumor volume (PC-3 xenograft; 1.5 mpk i.v. qw, day 4): 494 mm^3
Tumor volume (PC-3 xenograft; 1.5 mpk i.v. qw, day 6): 363 mm^3
Tumor volume (PC-3 xenograft; 1.5 mpk i.v. qw, day 8): 283 mm^3
Tumor volume (PC-3 xenograft; 1.5 mpk i.v. qw, day 10): 237 mm^3
Tumor volume (PC-3 xenograft; 1.5 mpk i.v. qw, day 17): 155 mm^3
T/C (PC-3 xenograft; 1.5 mpk i.v. qw, day 20): 5.5%
TGI (PC-3 xenograft; 1.5 mpk i.v. qw, day 20): 117.2%
Tumor volume (PC-3 xenograft; 1.5 mpk i.v. qw, day 20): 131 mm^3
treatment of relapsed Docetaxel-pretreated mice (PC-3 xenograft; BT5528 1.5 mg/kg qw from day 42): worked well on tumor regression
measurable tumor regression by day after dosing (PC-3 xenograft; PC-3 xenograft): ≤ 4 days
efficacy with intermittent dosing (PC-3 xenograft; dosing every 2 weeks): efficacious with intermittent dosing
MTV (mean tumor volume) (CTG-0160; 3 mg/kg IV Q7Dx4, Day 21): 400±187 mm^3
TGI (CTG-0160; 3 mg/kg IV Q7Dx4, Day 21): 87%
# CR (complete responders) (CTG-0160; [1]): 0/0/0
# PR (partial responders) (CTG-0160; [1]): 0/0/0
# TFS (tumor-free survivors) (CTG-0160; [1]): 0/0/0
% TGI (CTG-0160; CTG-0160, 3 mg/kg IV Q7Dx4, Day 21): 87%
Day 21 Tumor Volume Mean TV ± SEM (CTG-0160; CTG-0160, BT5528 3 mg/kg IV Q7Dx4, Day 21, n=2): 400 ± 187 mm^3
